Measured values reported in patent publication EP0429304A2, “Pyridone-carboxylic acid derivatives and their use as veterinary medicines” (SHIONOGI SEIYAKU KABUSHIKI KAISHA trading under the name of …, priority 1989, dated 1991).
Where two headings read alike, the source gives them in different places.

Key:
[1] = tested on: Streptococcus sp (Str.sp) SNO6119; experiment: In vitro sensitivity test; assay type: cell-based; details: 25°C, 40 to 48 hours
Description: (§1) Survey of the sensitivity of the compound (I) to various strains of microorganisms was performed by a liquid dilution method […] an agar dilution method, in which the bacteria used were of animal origin and included the following strains (15 strains out of 11 bacteria): Chicken-origin strain: Mycoplasma gallisepticum (MG), Mycoplasma synoviae (MS), Hemophilus paragallinarum (H.pg) and Escherichia coli (E.coli); Pig-origin strain: Mycoplasma hyopneumoniae (Mh), Hemophilus pleuropneumonia (H.pp) and Bordetella bronchiseptica (B.br); Fish-origin strain: Pasteurella piscicida (P.pis) and Streptococcus sp (Str.sp); others: Escherichia coli (E. coli), Salmonella typhimurium (S.typhi) and Staphylococcus aureus (S.au).
(§2) Of these bacteria, the strains belonging to MG, MS and Mh were cultured at 37°C for 7 days by a liquid dilution method, of which the culture medium comprised: 12 % horse-serum added "PPLO" (agar manufactured by Difco) medium for MG; 12 % pig-serum, 0.01 % βNAD (nicotinamide adenine dinucleotide) added Frey medium for MS; 0.5 % lactoalbumin added Hank's solution, 10 % horse-serum, 0.5 % yeast extract (25 %) for Mh, and the agar dilution method was applied to the strains belonging to H.pg, H.pp, S.typhi, E.coli, S.au and B.br. Specifically, the H.pg strain was cultured in a 5 % chicken-serum added chicken bouillon medium and the H.pp strain was cultured in a heart infusion agar added with 10 % sheep defibered blood and 0.05 % βNAD. In case of the H.pg and P.pp strains, observation was made after cultivation at 37°C for 20 hours under 10 % CO₂. Mueller Hinton agar (Difco) was used for the strains belonging to S.typhi, E.coli, S.au and B.br, and observation was made after cultivation at 37°C for 20 to 24 hours. P.pis and Str.sp, both being of fish-origin, were respectively cultured at 25°C for 40 to 48 hours in a 1.5 % NaCl added heart infusion agar and in a sensitive disk medium.

[2] = tested on: Pasteurella piscicida (P.pis) No. 2; experiment: In vitro sensitivity test; assay type: cell-based; details: 25°C, 40 to 48 hours
Description: as §1, §2

[3] = tested on: Staphylococcus aureus (S.au) 209P; experiment: In vitro sensitivity test (agar dilution method); assay type: cell-based; details: 37°C, 20 to 24 hours
Description: as §1, §2

[4] = tested on: Escherichia coli (E.coli) E-17, chicken-origin strain isolated from the field; experiment: In vitro sensitivity test (agar dilution method); assay type: cell-based; details: 37°C, 20 to 24 hours
Description: as §1, §2

[5] = tested on: Hemophilus paragallinarum (H.pg) 221; experiment: In vitro sensitivity test (agar dilution method); assay type: cell-based; details: agar dilution, 37°C, 20 hours, 10 % CO₂
Description: as §1, §2

[6] = tested on: Hemophilus pleuropneumonia (H.pp) M-1; experiment: In vitro sensitivity test (agar dilution method); assay type: cell-based; details: 37°C, 20 hours, 10 % CO₂
Description: as §1, §2

[7] = tested on: Escherichia coli (E.coli) JC-2; experiment: In vitro sensitivity test (agar dilution method); assay type: cell-based; details: 37°C, 20 to 24 hours
Description: as §1, §2

[8] = tested on: Salmonella typhimurium (S.typhi) 13311; experiment: In vitro sensitivity test (agar dilution method); assay type: cell-based; details: 37°C, 20 to 24 hours
Description: as §1, §2

[9] = tested on: Bordetella bronchiseptica (B.br) ABU-1; experiment: In vitro sensitivity test (agar dilution method); assay type: cell-based; details: 37°C, 20 to 24 hours
Description: as §1, §2

[10] = tested on: Hemophilus paragallinarum (H.pg) S-1; experiment: In vitro sensitivity test (agar dilution method); assay type: cell-based; details: agar dilution, 37°C, 20 hours, 10 % CO₂
Description: as §1, §2

[11] = tested on: Mycoplasma gallisepticum (MG) T-7-T, TS-resistant strain isolated from the field; experiment: In vitro sensitivity test (liquid dilution method); assay type: cell-based; details: 37°C, 7 days
Description: as §1, §2

[12] = tested on: Mycoplasma gallisepticum (MG) S6; experiment: In vitro sensitivity test (liquid dilution method); assay type: cell-based; details: 37°C, 7 days
Description: as §1, §2

[13] = tested on: TS-resistant strain of MG; assay type: in vivo, chicken; details: for Infectious index Left air sack + / Infectious index Left air sack ++ / Infectious index Left air sack +++ / Infectious index Left air sack - / Infectious index Right air sack + / Infectious index Right air sack ++ / Infectious index Right air sack +++ / Infectious index Right air sack -: count of fowl
[14] = tested on: Mycoplasma hyopneumoniae (Mh) ST-11; experiment: In vitro sensitivity test (liquid dilution method); assay type: cell-based; details: 37°C, 7 days
Description: as §1, §2

[15] = oral 3.13 mg/kg, 10-days chicken, 1.2 x 10³ CFU/fowl
[16] = oral 6.25 mg/kg, 10-days chicken, 1.2 x 10³ CFU/fowl
[17] = oral 12.5 mg/kg, 10-days chicken, 1.2 x 10³ CFU/fowl
[18] = oral 25.0 mg/kg, 10-days chicken, 1.2 x 10³ CFU/fowl
[19] = oral 1.56 mg/kg, 9-days chicken, 2.2 x 10³ CFU/fowl
[20] = oral 6.25 mg/kg, 9-days chicken, 2.2 x 10³ CFU/fowl
[21] = oral 12.5 mg/kg, 9-days chicken, 2.2 x 10³ CFU/fowl
[22] = oral 25.0 mg/kg, 9-days chicken, 2.2 x 10³ CFU/fowl

**Q.** What does the source list for `CNC[C@@]12CCC[C@@H]1CN(c1cc3c(cc1F)c(=O)c(C(=O)O)cn3C1CC1)C2` (relative stereo) [I-1, 7-[(1R*,5S*)-1-methylaminomethyl-3-azabicyclo[3.3.0]octan-3-yl]-1-cyclopropyl-6-fluoro-1,4-dihydro-4-oxo-3-quinolinecarboxylic acid]?
**A.** In vitro Sensitivity Test Str.sp SNO6119 [1]: 0.78 µg/mL; In vitro Sensitivity Test P.pis No. 2 [2]: 0.78 µg/mL; In vitro Sensitivity Test S.au 209P [3]: 0.025 µg/mL; In vitro Sensitivity Test E.coli E-17 [4]: 0.2 µg/ml; In vitro Sensitivity Test H.pg 221 [5]: 0.78 µg/mL; In vitro Sensitivity Test H.pp M-1 [6]: 0.39 µg/mL; In vitro Sensitivity Test E.coli JC-2 [7]: 0.2 µg/mL; In vitro Sensitivity Test S.typhi 13311 [8]: 0.2 µg/mL; In vitro Sensitivity Test B.br ABU-1 [9]: 12.5 µg/mL; In vitro Sensitivity Test H.pg S-1 [10]: 0.78 µg/mL; In vitro Sensitivity Test MG T-7-T [11]: 0.025 µg/mL; In vitro Sensitivity Test MG S6 [12]: 0.0125 µg/mL; Infectious index Left air sack + [13, 15]: 1; Infectious index Left air sack ++ [13, 15]: 0; Infectious index Left air sack +++ [13, 15]: 0; Infectious index Left air sack - [13, 15]: 4; Infectious index Right air sack + [13, 15]: 1; Infectious index Right air sack ++ [13, 15]: 3; Infectious index Right air sack +++ [13, 15]: 1; Infectious index Right air sack - [13, 15]: 0; Infectious index Left air sack + [13, 16]: 0; Infectious index Left air sack ++ [13, 16]: 0; Infectious index Left air sack +++ [13, 16]: 0; Infectious index Left air sack - [13, 16]: 5; Infectious index Right air sack + [13, 16]: 3; Infectious index Right air sack ++ [13, 16]: 1; Infectious index Right air sack +++ [13, 16]: 0; Infectious index Right air sack - [13, 16]: 1; Infectious index Left air sack + [13, 17]: 0; Infectious index Left air sack ++ [13, 17]: 0; Infectious index Left air sack +++ [13, 17]: 0; Infectious index Left air sack - [13, 17]: 5; Infectious index Right air sack + [13, 17]: 0; Infectious index Right air sack ++ [13, 17]: 1; Infectious index Right air sack +++ [13, 17]: 0; Infectious index Right air sack - [13, 17]: 4; Infectious index Left air sack + [13, 18]: 0; Infectious index Left air sack ++ [13, 18]: 0; Infectious index Left air sack +++ [13, 18]: 0; Infectious index Left air sack - [13, 18]: 5; Infectious index Right air sack + [13, 18]: 0; Infectious index Right air sack ++ [13, 18]: 0; Infectious index Right air sack +++ [13, 18]: 0; Infectious index Right air sack - [13, 18]: 5; antimicrobial activity compared with ERFX ([13]; in vivo, po): nearly equal potency to ERFX; Number of fowl having air sack lesions [13, 15]: 5; Number of fowl having air sack lesions [13, 16]: 4; Number of fowl having air sack lesions [13, 17]: 1; Number of fowl having air sack lesions [13, 18]: 0

**Q.** Which results are given for `CNC[C@@]12CCC[C@@H]1CN(c1c(Cl)cc3c(=O)c(C(=O)O)cn(C4CC4)c3c1Cl)C2.Cl` (relative stereo) [I-10, 7-[(1R*,5S*)-1-methylaminomethyl-3-azabicyclo[3.3.0]octan-3-yl]-1-cyclopropyl-6,8-dichloro-1,4-dihydro-4-oxo-3-quinoline carboxylic acid hydrochloride]?
**A.** In vitro Sensitivity Test Str.sp SNO6119 [1]: 0.78 µg/mL; In vitro Sensitivity Test P.pis No. 2 [2]: 1.56 µg/mL; In vitro Sensitivity Test S.au 209P [3]: 0.025 to 0.05 µg/mL; In vitro Sensitivity Test E.coli E-17 [4]: 0.39 µg/ml; In vitro Sensitivity Test H.pg 221 [5]: 0.78 µg/mL; In vitro Sensitivity Test H.pp M-1 [6]: 0.78 µg/mL; In vitro Sensitivity Test E.coli JC-2 [7]: 0.78 µg/mL; In vitro Sensitivity Test S.typhi 13311 [8]: 0.78 µg/mL; In vitro Sensitivity Test B.br ABU-1 [9]: 12.5 µg/mL; In vitro Sensitivity Test H.pg S-1 [10]: 0.39 µg/mL; In vitro Sensitivity Test Mh ST-11 [14]: 0.05 µg/mL; In vitro Sensitivity Test MG S6 [12]: 0.00625 µg/mL; Infectious index Left air sack + [13, 19]: 0; Infectious index Left air sack ++ [13, 19]: 0; Infectious index Left air sack +++ [13, 19]: 0; Infectious index Left air sack - [13, 19]: 4; Infectious index Right air sack + [13, 19]: 2; Infectious index Right air sack ++ [13, 19]: 0; Infectious index Right air sack +++ [13, 19]: 1; Infectious index Right air sack - [13, 19]: 1; Infectious index Left air sack + [13, 20]: 1; Infectious index Left air sack ++ [13, 20]: 0; Infectious index Left air sack +++ [13, 20]: 0; Infectious index Left air sack - [13, 20]: 4; Infectious index Right air sack + [13, 20]: 2; Infectious index Right air sack ++ [13, 20]: 2; Infectious index Right air sack +++ [13, 20]: 0; Infectious index Right air sack - [13, 20]: 1; Infectious index Left air sack + [13, 21]: 0; Infectious index Left air sack ++ [13, 21]: 0; Infectious index Left air sack +++ [13, 21]: 0; Infectious index Left air sack - [13, 21]: 5; Infectious index Right air sack + [13, 21]: 0; Infectious index Right air sack ++ [13, 21]: 0; Infectious index Right air sack +++ [13, 21]: 0; Infectious index Right air sack - [13, 21]: 5; Infectious index Left air sack + [13, 22]: 0; Infectious index Left air sack ++ [13, 22]: 0; Infectious index Left air sack +++ [13, 22]: 0; Infectious index Left air sack - [13, 22]: 5; Infectious index Right air sack + [13, 22]: 0; Infectious index Right air sack ++ [13, 22]: 0; Infectious index Right air sack +++ [13, 22]: 0; Infectious index Right air sack - [13, 22]: 5; Number of fowl having air sack lesions [13, 19]: 3; Number of fowl having air sack lesions [13, 20]: 4; Number of fowl having air sack lesions [13, 21]: 0; Number of fowl having air sack lesions [13, 22]: 0
